Where two headings read alike, the source gives them in different places.
What was measured:
[1] = target: T1, RI, regulatory subunit of cAMP-dependent protein kinase type I (Oryctolagus cuniculus, UniProt G1TDN4); assay: Binding affinity for RI (Table 14)
T1 construct: from tissue
Protocol: (§1) RI and RII are the regulatory subunits of cAMP-dependent protein
(§2) kinase type I and type II, respectively. Site A (Site 2) and Site B
(§3) (RI and RII): the affinities of analogues for Site A and Site B were
(§4) determined by the measurement of kinetic constants (inhibition constant,
(§5) Ki), and the values are expressed as the relative affinity Ki
(§6) (analogue), i.e., the ratio between the apparent inhibition constant for
(§7) cAMP and the analogue, as described in Ogreid et al., Eur. J. Biochem.

[2] = target: T2, RII, regulatory subunit of cAMP-dependent protein kinase type II (Bos taurus, UniProt P00515); assay: Binding affinity for RII (Table 14)
T2 construct: from tissue
Protocol: as §1, §2, §3, §4, §5, §6, §7

[3] = target: T3, Protein kinase type I (cAKI) (Oryctolagus cuniculus, UniProt G1TDN4); assay: Protein kinase activation (Table 15); format: biochemical, rabbit (skeletal muscle)
T3 construct: prepared from rabbit skeletal muscle and bovine heart; from tissue; host or cells: rabbit skeletal muscle
Protocol: (§8) ATP to Kemptide as described by Ogreid et al., Eur. J. Biochem. 150: 219-227 (1985).
(§9) Protein kinases types I (cAKI) and II (cAKII) were
(§10) prepared from rabbit skeletal muscle and bovine heart,
(§11) respectively, as described in D.o slashed.skeland et al. (J. Biol.
(§12) of the protein kinase in Ogreid et al. (Eur. J. Biochem.

[4] = target: T4, Protein kinase type II (cAKII) (Bos taurus, UniProt P00515); assay: Protein kinase activation (Table 15); format: biochemical, bovine (heart)
T4 construct: prepared from rabbit skeletal muscle and bovine heart; from tissue; host or cells: bovine heart
Protocol: as §8, §9, §10, §11, §12

[5] = tested on: HL-60 human leukemia cells; assay: Growth inhibition of HL-60 leukemia cells (Example 3, Table 16); format: cell-based; conditions: for IC50: Homo sapiens
Protocol: HL-60 leukemic cells were obtained from the American Type Culture Collection (Rockville, Md.) and were grown in suspension culture in RPMI 1640 supplemented with 10% heat-inactivated fetal bovine serum, streptomycin (500 μg/ml), penicillin (50 units/ml), and glutamine (1 mM) (Gibco, Grand Island, N.Y.).
Cell counts were performed at desired times on a Coulter Counter.
The IC50 values were determined from the dose-
represent an average value obtained for each analogue
from two or more separate experiments carried out from 3
days or 6 days. Initial cell number, 1 × 10^5 /dish.
Typical numbers of untreated control cells at day 3 and
viability in treated and control cells.

HL-60 Cells = assay: Cell cycle kinetics of HL-60 cells (Table 17); format: cell-based, human; conditions: for % G2 M / % G0-G1 / % S: 96 hours; for % G2 M: control 8.3; for % G0-G1: control 45.7; for % S: control 46
Protocol: (§13) Briefly, cells were fixed in 70% ethanol and stored at 4° C. before analysis. Nuclear DNA was stained with propidium iodide, 50 μg/ml in phosphate-buffered saline (pH 7.4), for 30 minutes at room temperature. RNase was added to avoid double-helix RNA staining. The DNA content of cells was analyzed by a FACScan flow cytometer coupled with a Hewlett-Packard computer. Cell cycle data analysis was performed by a Cell-FIT program according to the method of Dean (Cell Tissue Kinet. 13: 299-308 (1980)) (Becton Dickinson Immunocytometry Systems). Pulse area versus pulse width gating was performed to exclude doublets from the G2 -M region. For each sample, 20,000 events were stored in list mode. Cell surface antigen analysis was performed by flow cytometry with FACScan using a panel of monoclonal antibodies reactive with either monocytic or myeloid cells.

[6] = tested on: LS-174T human colon carcinoma cells; assay: Growth inhibition of LS-174T cells (Example 4, Table 18); format: cell-based
Protocol: LS-174T human colon carcinoma cells were obtained from the National Cancer Institute, Division of Cancer Treatment, Bethesda, Md., and were grown in Eagle's minimum essential medium supplemented with 10% heat-inactivated fetal bovine serum, Eagle's minimum essential medium nonessential amino acids, 20 mM 4-(2-hydroxyethyl)-1-piperazineethanesulfonic acid, 2mM glutamine, and penicillin-streptomycin (Gibco). The medium was changed every 48 hours.
LS-174T cells were seeded at a density of 2×10^5 / 60 mm dish. […] At desired times, cell counts were performed in duplicate on a Coulter Counter after harvesting cells with gentle trypsinization.
The percentage growth inhibition values shown at 10
and 50 μM analogue concentrations were determined from
the dose-response curve experiments like those shown in
FIG. 1 and represent an average value obtained for each
analogue from two or more separate experiments. Sp-6-SET-

HL-60 leukemia cells = assay: Surface antigen expression of HL-60 cells (Example 5); format: cell-based, human; conditions: 100 μM
Protocol: as §13
The effect of Rp- and Sp-8-Cl-cAMPS on the expression of differentiation markers in HL-60 cells was examined to determine if the growth-arrested HL-60 cells are more differentiated than untreated cells. […] For each sample, 2×10^4 cells were analyzed. Cell surface antigen analysis was performed by flow cytometry with FACScan. Cell gating was performed using forward and side scatter.

[7] = tested on: breast and colon cancer lines (MCF-7, T-47D, ZR-75-1, MCF-7ras, MDA-MB-231, BT-20, HBL-100, LS-174T, WiDr, HT-29); assay: Growth inhibition of breast and colon cancer lines (FIG. 1); format: cell-based, human; conditions: 0.5 mM, alone
[8] = tested on: four leukemic cell lines (HL-60, K-562, myc-K562, Molt-4); assay: Growth inhibition of leukemic cell lines; format: cell-based, human; conditions: 0.5 mM, alone
[9] = tested on: cultured human fibroblasts; conditions: cited from earlier work
[10] = half-maximum activation, U. M.: unmeasurable

T2 sequence (P00515 whole entry): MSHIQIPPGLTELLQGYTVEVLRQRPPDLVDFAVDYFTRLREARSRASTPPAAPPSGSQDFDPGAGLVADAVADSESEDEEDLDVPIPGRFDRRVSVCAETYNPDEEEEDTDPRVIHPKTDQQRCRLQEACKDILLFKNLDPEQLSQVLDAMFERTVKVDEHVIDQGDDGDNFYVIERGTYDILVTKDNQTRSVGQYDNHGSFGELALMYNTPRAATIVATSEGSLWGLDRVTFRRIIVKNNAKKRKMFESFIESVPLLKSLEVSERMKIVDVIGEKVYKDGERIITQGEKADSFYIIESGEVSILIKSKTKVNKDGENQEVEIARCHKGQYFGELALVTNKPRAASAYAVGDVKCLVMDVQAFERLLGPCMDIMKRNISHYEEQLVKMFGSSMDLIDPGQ
T1 sequence (G1TDN4 1-381): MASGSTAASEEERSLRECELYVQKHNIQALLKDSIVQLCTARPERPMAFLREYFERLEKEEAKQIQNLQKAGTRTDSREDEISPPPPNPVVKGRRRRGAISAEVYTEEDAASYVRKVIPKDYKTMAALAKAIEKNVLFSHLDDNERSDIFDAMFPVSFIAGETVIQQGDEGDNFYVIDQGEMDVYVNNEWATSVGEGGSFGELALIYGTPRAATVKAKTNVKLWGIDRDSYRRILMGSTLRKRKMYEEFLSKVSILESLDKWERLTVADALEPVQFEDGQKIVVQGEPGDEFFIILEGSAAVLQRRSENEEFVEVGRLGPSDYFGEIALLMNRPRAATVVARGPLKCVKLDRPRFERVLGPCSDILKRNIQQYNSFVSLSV
T4 sequence (P00515 2-401 limits assumed): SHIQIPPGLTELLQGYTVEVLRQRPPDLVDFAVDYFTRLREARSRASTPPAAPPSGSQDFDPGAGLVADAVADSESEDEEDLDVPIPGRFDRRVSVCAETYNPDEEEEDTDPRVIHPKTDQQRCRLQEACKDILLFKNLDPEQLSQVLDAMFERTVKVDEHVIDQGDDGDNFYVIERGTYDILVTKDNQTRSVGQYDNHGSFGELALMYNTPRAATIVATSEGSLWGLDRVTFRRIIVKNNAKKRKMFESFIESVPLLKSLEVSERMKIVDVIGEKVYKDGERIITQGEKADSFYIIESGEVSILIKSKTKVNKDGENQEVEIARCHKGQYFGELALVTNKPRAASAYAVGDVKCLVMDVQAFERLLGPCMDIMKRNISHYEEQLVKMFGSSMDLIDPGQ
T3 sequence (G1TDN4 1-381): as the sequence (G1TDN4 1-381) above

Nc1ncnc2c1nc(Cl)n2[C@@H]1O[C@@H]2CO[P@](O)(=S)O[C@H]2[C@H]1O [Sp-8-Cl-cAMPS, Sp-(axial exocyclic sulfursubstitution) 8-chloro-adenosine 3': 5'-monophosphorothioate]
relative affinity Ki (cAMP)/Ki (analogue), RI Site A ([1]; Site A (Site 2)): 0.18 | relative affinity Ki (cAMP)/Ki (analogue), RI Site B ([1]; Site B (Site 1)): 0.037 | decrease in affinity for Site A of RI vs corresponding cyclophosphate ([1]; vs cyclophosphate): 15 fold | decrease in affinity for Site B of RI vs corresponding cyclophosphate ([1]; vs cyclophosphate): 54 fold | relative affinity Ki (cAMP)/Ki (analogue), RII Site A ([2]; Site A (Site 2)): 0.0023 | relative affinity Ki (cAMP)/Ki (analogue), RII Site B ([2]; Site B (Site 1)): 2.4 | decrease in affinity for Site A of RII vs corresponding cyclophosphate ([2]; vs cyclophosphate): 22 fold | decrease in affinity for Site B of RII vs corresponding cyclophosphate ([2]; vs cyclophosphate): 1.9 fold | Activation Constant (Ka), cAKI [3, 10]: 2.5 × 10^-7 | increase in the Ka for protein kinase type I vs 8-Cl-cAMP ([3]; vs 8-Cl-cAMP): 11 fold | Activation Constant (Ka), cAKII [4, 10]: 2.5 × 10^-7 | increase in the Ka for protein kinase type II vs 8-Cl-cAMP ([4]; vs 8-Cl-cAMP): 2.5 fold | IC50 ([5]; HL-60, 72 h, read-out: Growth inhibition (IC50), Day 3): 100 µM | IC50 ([5]; HL-60, 144 h, read-out: Growth inhibition (IC50), Day 6): 8 µM | fold less potent than 8-Cl-cAMP ([5]; growth inhibition HL-60, day 6): 20 fold | % G2 M (HL-60 Cells; 10 μM): 8.9% | % G0-G1 (HL-60 Cells; 10 μM): 46.8% | % S (HL-60 Cells; 10 μM): 44.3% | % G2 M (HL-60 Cells; 50 μM): 8.6% | % G0-G1 (HL-60 Cells; 50 μM): 46% | % S (HL-60 Cells; 50 μM): 45.4% | % G2 M (HL-60 Cells; 100 μM): 9.0% | % G0-G1 (HL-60 Cells; 100 μM): 56% | % S (HL-60 Cells; 100 μM): 35% | cell cycle phase distribution (HL-60 Cells; HL-60, 96 hours in Table 17): not appreciably different | inhibition at 10 µM ([6]; Homo sapiens, LS174T): 20% | inhibition at 50 µM ([6]; Homo sapiens, LS174T): 40% | growth inhibitory potency ([6]; LS-174T): moderate potency | surface antigen expression (HL-60 leukemia cells): no appreciable effect on the surface antigen expression

CC(C)Cn1c(=O)n(C)c(=O)c2[nH]cnc21 [1-methyl-3-isobutylxanthine]
growth inhibitory effect [7]: little or no growth inhibitory effect | growth inhibitory effect [8]: little or no growth inhibitory effect | DNA synthesis ([9]; added during first eight hours after serum addition): not delayed | DNA synthesis ([9]; added more than eight hours after serum addition): inhibitory
